No end group written: not given here.
Assays:
Akt1 = target: T1, Akt1 (Homo sapiens, UniProt P31749); assay: in vitro Akt1 kinase assay with biotinylated Bad-derived peptide substrate; assay type: biochemical; details: FIG. 3
T1 construct: made in house; host or cells: baculovirus / insect cells

SGK = assay: kinase selectivity assay, SGK; assay type: biochemical
From the text: Enzymes: Akt1 was expressed and purified using a baculoviral system. PKA was purchased from Panvera. CDC2, […] and PKC gamma were purchased from Calbiochem, and SGK and Src were purchased from Upstate Biotechnology (Charlottesvilee, Va.).
Substrates: All substrates were custom synthesized by Genemed Synthesis, Inc. (San Francisco, Calif.) except the Src substrate, which was purchased from Promega (cat#V6480). The substrates had the general structure of Biotin-Ahx-peptide. The Akt assay used […]. The PKA assay used kemptide LRRASLG. The CDC2 assay used PKTPKKAKKL. The SGK assay used RPRAATF. The PKC delta and gamma used neurogranin ERMRPRKRQGSVRRRV. Phosphotidylserine and dioleyl-sn-glycerol were purchased from Avanti Polar Lipids (Alabaster, Ala.). Strepavidin Flash Plates were purchased from Perkin Elmer Life Sciences (Boston, Mass.).
Turning to the kinase selectivity assays, all the enzymes other than Akt were tested in 25 mM Hepes buffer pH 7.4, 10 mM MgCl2, 0.1 mM Na3VO4, 0.5 mM DTT and 0.075 mg/ml Triton X-100. […] Reactions were transferred to Flash Plates, vortexed and incubated at room temperature for 10 min, then washed 3 times with phosphate buffered saline with 0.05% Tween 20 and counted on a TopCount Packard Instruments gamma counter (Packard Instruments, Boston, Mass.). IC50s were calculated using the Assay Explorer software, sigmoidal curve fit by MDL.

mouse Akt1 = mouse Akt1 (Mus musculus, UniProt P31750); details: mouse Akt1, J. Biol. Chem. 275:36108-36115 (2000); cited from earlier work
Chain of mouse Akt1 (P31750 whole entry): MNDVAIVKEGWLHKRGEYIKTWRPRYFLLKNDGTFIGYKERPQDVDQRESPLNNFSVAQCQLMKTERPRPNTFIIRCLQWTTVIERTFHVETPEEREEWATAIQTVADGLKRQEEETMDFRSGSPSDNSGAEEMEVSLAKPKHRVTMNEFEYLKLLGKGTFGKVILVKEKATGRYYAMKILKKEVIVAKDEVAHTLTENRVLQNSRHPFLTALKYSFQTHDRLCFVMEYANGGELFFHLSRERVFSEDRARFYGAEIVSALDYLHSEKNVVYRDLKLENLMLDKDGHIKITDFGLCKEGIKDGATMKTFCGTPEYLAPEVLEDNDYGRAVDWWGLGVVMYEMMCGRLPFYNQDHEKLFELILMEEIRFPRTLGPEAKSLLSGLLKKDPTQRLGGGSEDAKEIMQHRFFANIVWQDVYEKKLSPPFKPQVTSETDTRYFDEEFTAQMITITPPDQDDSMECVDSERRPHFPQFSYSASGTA

Akt = assay: Ki
Protocol: Table printed on a drawing sheet, FIG.8
The patent's description of the figure: FIG. 8 represents the minimal length requirement for the peptide inhibitors. Different lengths of peptide inhibitor 2 were synthesized. For some of them, an acetyl group was added to the amino terminal end to increase the stability for cellular assays. These peptides were tested in the Akt assay described herein.
First copying reader's note: Ki values are for length variants of peptide inhibitor 2 tested in the Akt assay; the unit (μM) stands in the cells.
Where the first naming reader finds the target: description_of_the_figure: These peptides were tested in the Akt assay described herein.

[1] = tested on: Akt1-FL (full-length Akt1); assay: IC50 (Akt1-FL*)
Protocol: Table printed on a drawing sheet, FIG.3B
Head of the field: IC50 (Akt1-FL*)
Footnotes: *FL: FULL-LENGTH
The patent's description of the figure: FIG. 3: FIG. 3A illustrates Akt1 inhibition by the five Akt1 peptide inhibitors. FIG. 3B illustrates the IC50 of the five peptide inhibitors.
First copying reader's note: For peptide 5 the sheet prints a percent value at 128μM in place of an IC50.
Where the first naming reader finds the target: head: IC50 (Akt1-FL*)

T1 sequence (P31749 whole entry): as the sequence (P31750 whole entry) above, with N2S, S50A, A100T, R112K, T117E, T389K, N410G, D415H counted along it

Row | Compound | Ki (Akt) | IC50 [1] | other results
1 | 5: peptide 2 with threonine at position 15 mutated to Asp (VELDPEFEPRARERDYAFGH; Variant of the wildtype Akt Sequence) [Peptide 5] |  |  | relative potency of Akt1 inhibition (in words) (Akt1): least potent inhibitor
2 | CC(C)C[C@H](NC(=O)[C@H](CCC(=O)O)NC(=O)[C@@H](N)C(C)C)C(=O)N[C@@H](CC(=O)O)C(=O)N1CCC[C@H]1C(=O)N[C@@H](CCC(=O)O)C(=O)N[C@@H](Cc1ccccc1)C(=O)N[C@@H](CCC(=O)O)C(=O)N1CCC[C@H]1C(=O)N[C@@H](CCCNC(=N)N)C(=O)N[C@@H](C)C(=O)N[C@@H](CCCNC(=N)N)C(=O)N[C@@H](CCC(=O)O)C(=O)N[C@@H](CCCNC(=N)N)C(=O)N[C@H](C(=O)N[C@@H](Cc1ccc(O)cc1)C(=O)N[C@@H](CO)C(=O)N[C@@H](Cc1ccccc1)C(=O)NCC(=O)N[C@@H](Cc1c[nH]cn1)C(=O)O)[C@@H](C)O [Peptide 1] |  |  | relative potency of Akt1 inhibition (in words) (Akt1): most potent inhibitor against Akt1; inhibition on SGK (in words) (SGK): inhibition was observed; Ki (SGK; highest concentration tested 50 μM, 10 μM ATP): 1000 nM
3 | ARKRERTYSFGHHA [AKTide-2T] |  |  | Ki (mouse Akt1): 12000 nM
4 | Ac-DPEFEPRARERTYAFGH | 260 nM |  | 
5 | Ac-ERTYAFGH | > 100000 nM |  | 
6 | Ac-FEPRARERTYAFGH | 1440 nM |  | 
7 | Ac-RARERTYAFGH | 15900 nM |  | 
8 | FEPRARERTYAFGH | 1970 nM |  | 
9 | VELDPEFEPRARER A Y A F GH [4:] |  | 210 nM | 
10 | VELDPEFEPRARER T Y A F GH [2:] |  | 280 nM | 
11 | VELDPEFEPRARER T Y D F GH [3:] |  | 10600 nM | 
12 | VELDPEFEPRARER T Y S F GH [1:] |  | 490 nM | 
